Read-outs that look alike come from different tables or passages of the source.
Key:
urease [1] = target: urease (Canavalia ensiformis, UniProt P07374)
Procedure: This can simply be studied by addition of 30 ml of methanal to the urease-contaminated and Cu^2+-contaminated reference system.
This is simple studied by addition of 30 ml methanal to the reference system contaminated with urease, Ag^+- or Pb^2+-ions.

[2] = tested on: urease activity from natural animal faeces; assay: stable experiment: collected liquid manure and faeces with inhibitor, hyperfiltration, polymerisation with methanal; set-up: species or system pigs; conditions: for polymerisation of concentrated livestock-produced urea with methanal: 50 ml of hyperfiltration concentrate plus 30 ml methanal
Procedure: Below a stable floor supporting 20 pigs to be slaughtered a large plastic foil covering the underlying floor having the shape of an inverted pyramid was placed. […] The liquid manure and faeces of the animals were collected on this foil for the next 24 hours. From this foil 20 l sample was collected (and separated) and treated in a hyperfiltration system of the type ROMEDI-250 supplied by UNION-filtration a/s, Nakskov, Denmark. The separation process was continued until a total of 15 l permeate liquid—water was withdrawn. The urea-lean fraction was disposed.

urease EC 3.5.1.5 = urease EC 3.5.1.5 (Canavalia ensiformis, UniProt P07374)
urease EC 3.5.1.5, sequence (P07374 whole entry, looked up): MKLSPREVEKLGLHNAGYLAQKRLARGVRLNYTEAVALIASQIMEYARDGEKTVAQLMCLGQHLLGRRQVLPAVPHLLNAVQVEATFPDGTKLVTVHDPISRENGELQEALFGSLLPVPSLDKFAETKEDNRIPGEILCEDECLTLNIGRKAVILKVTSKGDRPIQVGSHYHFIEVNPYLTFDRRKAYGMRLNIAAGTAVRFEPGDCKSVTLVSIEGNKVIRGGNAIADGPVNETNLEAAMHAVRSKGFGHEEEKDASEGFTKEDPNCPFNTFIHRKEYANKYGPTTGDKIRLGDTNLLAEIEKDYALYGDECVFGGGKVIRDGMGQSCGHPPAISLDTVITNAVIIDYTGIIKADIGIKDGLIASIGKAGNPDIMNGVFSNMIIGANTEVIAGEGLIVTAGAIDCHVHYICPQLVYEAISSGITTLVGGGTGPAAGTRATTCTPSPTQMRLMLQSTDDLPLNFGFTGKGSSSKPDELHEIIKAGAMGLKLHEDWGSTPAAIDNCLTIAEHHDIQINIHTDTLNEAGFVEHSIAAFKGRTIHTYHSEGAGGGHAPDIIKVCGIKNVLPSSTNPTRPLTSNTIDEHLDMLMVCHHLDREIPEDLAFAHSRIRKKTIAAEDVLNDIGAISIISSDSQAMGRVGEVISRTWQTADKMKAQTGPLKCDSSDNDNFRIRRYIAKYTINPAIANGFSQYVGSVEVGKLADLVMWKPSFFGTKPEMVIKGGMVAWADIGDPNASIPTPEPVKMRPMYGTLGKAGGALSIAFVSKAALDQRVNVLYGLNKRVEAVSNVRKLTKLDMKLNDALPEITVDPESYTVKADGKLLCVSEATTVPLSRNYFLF
Procedure: For this example, a colourless urea reference system is defined by the following mixture: in a conical flask 10 g of synthetic urea is diluted with water to 50 ml, three drops of the acid-base indicator phenolphthalein is added.

urease [3] = tested on: urease
[4] = 30 ml methanal (24% by weight) added to urease-contaminated urea system containing the inhibitor

urease (Canavalia ensiformis, UniProt P07374), sequence (P07374 whole entry, looked up): as above

Molecule: CC(=NO)C(C)=NO [dimethylglyoxime]
- formation of urea formaldehyde plastic in spite of urease contamination (urease [1]; [4]): it is possible to form the urea formaldehyde plastic
- polymerisation of concentrated livestock-produced urea with methanal [2]: can be reproduced

Molecule: NCCN [ethylenediamine]
- formation of urea formaldehyde plastic in spite of urease contamination (urease [1]): it is possible to form the urea formaldehyde plastic
- polymerisation of concentrated livestock-produced urea with methanal [2]: can be reproduced

Molecule: CC(=O)[O-].CC(=O)[O-].[Pb+2] [lead acetate]
- polymerisation of concentrated livestock-produced urea with methanal [2]: can be reproduced

Molecule: O=[N+]([O-])[O-].[Ag+] [silver nitrate]
- colour shift of phenolphthalein into red (ammonia formation by urea hydrolysis) (urease EC 3.5.1.5; 1 g inhibitor added to 10 g urea in 50 ml water, then 1 ml urease (540 units per ml), system also does not begin to smell of ammonia): the colour shift of phenolphthalein does not occur
- catalytic effect of the urease enzyme on the hydrolysis of urea (urease EC 3.5.1.5; ions present in the urinal system): completely lost
- formation of urea formaldehyde plastic in spite of urease contamination (urease [1]; [4]): it is possible to form the urea formaldehyde plastic
- polymerisation of concentrated livestock-produced urea with methanal [2]: can be reproduced

Molecule: NC(N)=O [urea]
- Km (urease [3]; pH 5.5, pig manure system): ~1000 µM
- νm (urease [3]; pH 5.5, pig manure system): approximately 2×10^−3 mol/dm^3/min
- Km (urease [3]; pH 7, similar manure system): ~4000 µM
- νm (urease [3]; pH 7, similar manure system): approximately 11×10^−3 mol/dm^3/min

Molecule: copper sulphate, pentahydrate
- urease activity in manure system ([2]; 5 l water and 10 g copper sulphate, pentahydrate below stable floor, 20 pigs, 24 hours collection): remove the urease activity
- polymerisation of concentrated livestock-produced urea with methanal [2]: the polymerisation proceeded

Source: patent US7731856B2, “Method and system for treating waste matter from animals, urea-rich and urea-lean waste-matter products, and uses thereof” (Waste 2 Green, LLC, priority 2003, dated 2010)
